Measured values reported in patent US20260242405A1, “N-DERIVATIZED SIALIC ACIDS AND RELATED SIALOSIDES” (THE REGENTS OF THE UNIVERSITY OF CALIFORNIA, priority 2023, published 2026).
Where two headings read alike, the source gives them in different places.

Columns and labels:
[1] = target: N1-BR18 (IAV neuraminidase) (Influenza A virus, UniProt A0A0X9QTS2); assay: Fluorescence-based inhibition assay (substrate Neu5Acα2-3GalβMU, β-galactosidase coupled); format: biochemical, influenza A virus A/Brisbane/02/2018 (H1N1); conditions: for Percentage inhibition against N1-BR18 (IAV) / percentage inhibition against N1-BR18: inhibitor 8.0 μM; for Percentage inhibition against N1-BR18 (IAV): substrate Neu5Acα2-3GalβMU 8.0 μM; for IC50: read-out: IC50 against N1-BR18
[2] = target: NB-Aus21 (IBV neuraminidase) (Influenza B virus, UniProt A0A1X9RX69); assay: biochemical; parameters: species or system influenza B virus B/Austria/1359417/2021
[3] = target: T1, hNEU2 (human cytosolic sialidase) (Homo sapiens, UniProt Q9Y3R4); assay: Fluorescence-based inhibition assay (substrate Neu5Acα2-3GalβMU, β-galactosidase coupled); format: biochemical; conditions: inhibitor 8.0 μM
T1 construct: made in house

[4] = system: N1-Vic19 (IAV neuraminidase); assay: as above; format: biochemical, influenza A virus A/Victoria/2570/2019 (H1N1); conditions: for percentage inhibition against N1-Vic19: inhibitor 8.0 μM, Example 3, Table 4
[5] = target: N2-Dar21 (IAV neuraminidase) (Influenza A virus, UniProt A0A193ACB1); assay: as above; format: biochemical, influenza A virus A/Darwin/9/2021 (H3N2); conditions: for inhibition at 8 µM: read-out: percentage inhibition against N2-Dar21; for percentage inhibition against N2-Dar21: inhibitor 8.0 μM, Example 3, Table 4
[6] = target: N2-Kan17 (IAV neuraminidase) (Influenza A virus, UniProt A0A193ACB1); assay: as above; format: biochemical, influenza A virus A/Kansas/14/2017 (H3N2); conditions: for inhibition at 8 µM: read-out: percentage inhibition against N2-Kan17; for percentage inhibition against N2-Kan17: inhibitor 8.0 μM, Example 3, Table 4
[7] = target: NB-Phu13 (IBV neuraminidase) (Influenza B virus, UniProt A0A1S5RAG6); assay: as above; format: biochemical, influenza B virus B/Phuket/3073/2013; conditions: for inhibition at 8 µM: read-out: percentage inhibition against NB-Phu13; for percentage inhibition against NB-Phu13: inhibitor 8.0 μM, Example 3, Table 4
[8] = target: T2, PmST1 WT (sialidase activity of α2-3-sialyltransferase 1 in the presence of CMP) (Pasteurella multocida, UniProt Q15KI8); assay: biochemical; conditions: for inhibition at 8 µM: read-out: percent inhibition against PmST1 WT; for percent inhibition against PmST1 WT: inhibitor 8.0 μM, in the presence of CMP, Table 5
T2 construct: made in house

SpNanA (sialidase) = target: T3, SpNanA (sialidase) (Streptococcus pneumoniae, UniProt P62575); assay: Fluorescence-based inhibition assay (substrate Neu5Acα2-3GalβMU, β-galactosidase coupled); format: biochemical; conditions: for inhibition at 8 µM: read-out: percent inhibition against SpNanA; for percent inhibition against SpNanA: inhibitor 8.0 μM, Table 5
T3 construct: made in house

[9] = system: human, bacterial, and influenza sialidases; assay: High-throughput substrate specificity assay with sialyl GalβpNPs (A405 nm); format: biochemical, bacteria, influenza A and B viruses; conditions: for cleavage by sialidases, selectivity: low and high enzyme-concentration assay conditions, Example 3
[10] = inhibitor 8.0 μM, substrate Neu5Acα2-3GalβMU 8.0 μM, Example 2, Table 2
[11] = substrate Neu5Acα2-3GalβMU 8.0 μM, Example 2, Table 2
[12] = read-out: Percentage inhibition against N1-BR18 (IAV), inhibitor 8.0 μM, substrate Neu5Acα2-3GalβMU 8.0 μM, Example 2, Table 2
[13] = read-out: percentage inhibition against N1-BR18, inhibitor 8.0 μM, Example 3, Table 4
[14] = inhibitor 8.0 μM, substrate Neu5Acα2-3GalβMU 8.0 μM, Example 2, Table 2, read-out: Percentage inhibition against NB-Aus21 (IBV)
[15] = inhibitor 8.0 μM, Example 3, Table 4, read-out: percentage inhibition against NB-NB-Aus21
[16] = substrate Neu5Acα2-3GalβMU 8.0 μM, Example 2, Table 2, read-out: Percentage inhibition against hNEU2
[17] = Table 5, read-out: percent inhibition against hNEU2
[18] = high-concentration enzyme conditions (10-fold, Vc sialidase 4-fold), 1 hour
[19] = high-concentration enzyme conditions, 14 hours
[20] = inhibitor 8.0 μM, Example 3, Table 4

T1 sequence (Q9Y3R4 whole entry): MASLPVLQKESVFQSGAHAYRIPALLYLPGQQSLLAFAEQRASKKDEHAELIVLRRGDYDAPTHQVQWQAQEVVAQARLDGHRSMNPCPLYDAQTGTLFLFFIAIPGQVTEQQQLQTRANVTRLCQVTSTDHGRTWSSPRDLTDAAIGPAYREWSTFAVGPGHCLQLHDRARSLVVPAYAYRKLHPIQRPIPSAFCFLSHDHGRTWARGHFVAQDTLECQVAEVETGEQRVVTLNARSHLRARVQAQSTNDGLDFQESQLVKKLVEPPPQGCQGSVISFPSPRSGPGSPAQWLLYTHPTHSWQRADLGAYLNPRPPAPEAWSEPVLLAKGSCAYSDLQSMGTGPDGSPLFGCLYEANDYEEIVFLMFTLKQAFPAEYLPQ

| Compound | Percentage inhibition against N1-BR18 (IAV) ([1]; Example 2, Table 2) [%] | Percentage inhibition against NB-Aus21 (IBV) [2, 10] [%] | Percentage inhibition against hNEU2 [3, 11] [%] | inhibition at 8 µM [1, 12] [%] | inhibition at 8 µM [1, 13] [%] | inhibition at 8 µM [2, 14] [%] | inhibition at 8 µM [2, 15] [%] | inhibition at 8 µM [3, 16] [%] | inhibition at 8 µM [3, 17] [%] | percentage inhibition against N1-Vic19 [4] [%] | inhibition at 8 µM [5] [%] | inhibition at 8 µM [6] [%] | inhibition at 8 µM [7] [%] | inhibition at 8 µM [8] [%] | inhibition at 8 µM (SpNanA (sialidase)) [%] | also measured |
| --- | --- | --- | --- | --- | --- | --- | --- | --- | --- | --- | --- | --- | --- | --- | --- | --- |
| CC(=O)N[C@H]1[C@H]([C@H](O)[C@H](O)CO)OC(O)(C(=O)O)C[C@@H]1NC(=N)N (stereo partly shown) [4-Guanidino-Neu5Ac (9), 4-guanidino-Neu5Ac] | 76.4 ± 4.9 | 51.0 ± 0.1 | 3.3 ± 0.6 |  |  |  |  |  |  |  |  |  |  |  |  |  |
| CC(=O)N[C@H]1[C@H]([C@H](O)[C@H](O)CO)OC(O)(C(=O)O)C[C@@H]1N=[N+]=[N-] (stereo partly shown) [4N3Neu5Ac (7), 4-azido-Neu5Ac] | 0.0 ± 4.5 | 37.5 ± 4.1 | 3.0 ± 0.8 |  |  |  |  |  |  |  |  |  |  |  |  |  |
| CC(=O)N[C@@H]1C(N=[N+]=[N-])C[C@](OC2C(O)[C@H](Oc3ccc([N+](=O)[O-])cc3)OC(CO)[C@@H]2O)(C(=O)O)OC1[C@H](O)[C@H](O)CO (stereo partly shown) [4N3Neu5Acα2-3GalβpNP] |  |  |  | 0 | 2.6 | 22 ± 3.7 | 3.8 | 0 | 0 | 1.2 | 0.8 | 0.1 | 0.9 | 24 ± 6.9 | 0.6 ± 2.7 | cleavage by sialidases [9, 18]: completely cleaved; cleavage by sialidases [9, 19]: selectively by influenza virus NAs; cleavage by sialidases, selectivity [9]: selectively cleaved by all influenza NAs tested but not human NEU2 or bacterial sialidases; cleavage by sialidases ([9]; low-concentration enzyme conditions, 30 minutes, 37° C.): cleaved off selectively by influenza virus NAs only |
| CC(=O)N[C@@H]1C(N=[N+]=[N-])C[C@](OCC2O[C@@H](Oc3ccc([N+](=O)[O-])cc3)C(O)C(O)[C@H]2O)(C(=O)O)OC1[C@H](O)[C@H](O)CO (stereo partly shown) [4N3Neu5Acα2-6GalβpNP] |  |  |  | 0 | 0.2 | 23 ± 3.6 | 1.4 | 0 | 0 | 3.9 | 1 | 0 | 2.6 | 41.3 ± 20.3 | 11.6 ± 6.7 | cleavage by sialidases [9, 18]: low percentage; cleavage by sialidases [9, 19]: selectively by influenza virus NAs; cleavage by sialidases, selectivity [9]: observed only under the high-enzyme-concentration assay conditions |
| CC(=O)N[C@H]1[C@H]([C@H](O)[C@H](O)CO)OC(C(=O)O)=C[C@@H]1NC(C)=O [4NAcNeu5Ac2en] | 0.0 ± 2.5 | 21.3 ± 0.2 | 2.1 ± 2.5 |  |  |  |  |  |  | 0.7 |  |  |  |  |  | percentage inhibition against N1-BR18 ([1]; Example 3, Table 4): 2.5%; percentage inhibition against NB-NB-Aus21 [2, 20]: 1.4%; percent inhibition against hNEU2 ([3]; Table 5): 2.1 ± 2.5%; percentage inhibition against N2-Dar21 [5]: 2.4%; percentage inhibition against N2-Kan17 [6]: 6.1%; percentage inhibition against NB-Phu13 [7]: 0.6%; percent inhibition against PmST1 WT [8]: 7.1 ± 0.7%; percent inhibition against SpNanA (SpNanA (sialidase)): 0.5 ± 6.5% |
| CC(=O)N[C@H]1[C@H]([C@H](O)[C@H](O)CO)OC(O)(C(=O)O)C[C@@H]1NC(C)=O (stereo partly shown) [4NAcNeu5Ac (3), 4NAcNeu5Ac] | 11.5 ± 22.7 | 27.9 ± 10.1 | 3.0 ± 1.0 |  |  |  |  |  |  |  |  |  |  |  |  |  |
| CC(=O)NC1C[C@](OCC2O[C@@H](Oc3ccc([N+](=O)[O-])cc3)C(O)C(O)[C@H]2O)(C(=O)O)OC([C@H](O)[C@H](O)CO)[C@@H]1NC(C)=O (stereo partly shown) [4NAcNeu5Acα2-6GalβpNP] |  |  |  | 0 | 0 | 21.5 ± 1.7 | 0.4 | 0 | 0 | 0.4 | 0.4 | 1 | 1.5 | 18.6 ± 4 | 4.2 ± 0.8 |  |
| CC(=O)N[C@H]1[C@H]([C@H](O)[C@H](O)CO)OC(C(=O)O)=C[C@@H]1N [4NH2Neu5Ac2en, 4-amino-2,3-dehydro-N-acetylneuraminic acid, reference compound] | 93.6 ± 0.2 | 98.3 ± 0.1 | 0.0 ± 6.6 |  |  |  |  |  |  | 95.9 |  |  |  |  |  | IC50 ([1]; fluorescence-based inhibition assay, Example 2, Table 3, listed as 4NH2Neu5 Ac2en): 490 nM; IC50 ([1]; fluorescence-based inhibition assay, Example 2, Table 3): 490 nM; percentage inhibition against N1-BR18 ([1]; Example 3, Table 4): 94.9%; percentage inhibition against NB-NB-Aus21 [2, 20]: 97.4%; percent inhibition against hNEU2 ([3]; Table 5): 0.0 ± 6.6%; percentage inhibition against N2-Dar21 [5]: 94.6%; percentage inhibition against N2-Kan17 [6]: 91.3%; percentage inhibition against NB-Phu13 [7]: 91.2%; percent inhibition against PmST1 WT [8]: 9.8 ± 1.2%; percent inhibition against SpNanA (SpNanA (sialidase)): 7.9 ± 2.6% |
| CC(=O)N[C@H]1[C@H]([C@H](O)[C@H](O)CO)OC(O)(C(=O)O)C[C@@H]1N (stereo partly shown) [4NH2Neu5Ac (8), 4-amino-4-deoxy-N-acetylneuraminic acid] |  |  |  | 28.6 ± 24.5 |  | 41.8 ± 2.8 |  | 2.2 ± 1.2 |  |  |  |  |  |  |  |  |
| CC(=O)N[C@H]1[C@H]([C@H](O)[C@H](O)CO)OC(C(=O)O)=C[C@@H]1N=[N+]=[N-] [Compound 4N3Neu5Ac2en, 4N3Neu5Ac2en] | 40.7 ± 2.7 | 82.8 ± 1.7 | 3.3 ± 0.6 |  |  |  |  |  |  | 39.6 |  |  |  |  |  | IC50 ([1]; Example 3, Table 6): 4400 ± 200 nM; percentage inhibition against N1-BR18 ([1]; Example 3, Table 4): 39.2%; percentage inhibition against NB-NB-Aus21 ([2]; 8 µM): 78.8±3.7%; IC50 ([2]; Example 3, Table 6, read-out: IC50 against NB-NB-Aus21): 1500 ± 100 nM; percent inhibition against hNEU2 ([3]; Table 5): 3.3 ± 0.6%; IC50 ([4]; Example 3, Table 6, read-out: IC50 against N1-Vic19): 6.2 ± 0.4 µM; percentage inhibition against N2-Dar21 [5]: 22.1%; percentage inhibition against N2-Kan17 [6]: 18.3%; IC50 ([7]; Example 3, Table 6, read-out: IC50 against NB-Phu13): 1400 ± 100 nM; percentage inhibition against NB-Phu13 [7]: 75.6±1.6%; percent inhibition against PmST1 WT [8]: 15.4 ± 5.0%; percent inhibition against SpNanA (SpNanA (sialidase)): 3.0 ± 1.3% |
| CC(=O)N[C@H]1[C@H]([C@H](O)[C@H](O)CO)OC(O)(C(=O)O)C[C@@H]1O (stereo partly shown) [Neu5Ac (1), N-Acetylneuraminic acid, reference compound] |  |  |  | 5.2 ± 5.3 |  | 20.2 ± 2.6 |  | 1.7 ± 0.5 |  |  |  |  |  |  |  |  |
| CC(=O)N[C@@H]1C(O)C[C@](OC2C(O)[C@H](Oc3ccc([N+](=O)[O-])cc3)OC(CO)[C@@H]2O)(C(=O)O)OC1[C@H](O)[C@H](O)CO (stereo partly shown) [Neu5Acα2-3GalβpNP, reference compound] |  |  |  | 2.3 ± 1.2 | 1.8 | 25.6 ± 2.3 | 0.5 | 0 | 0 | 3.3 | 0.9 | 0.1 | 0.7 | 12.4 ± 2.2 | 17.1 ± 6.1 |  |
| CC(=O)N[C@@H]1C(O)C[C@](OCC2O[C@@H](Oc3ccc([N+](=O)[O-])cc3)C(O)C(O)[C@H]2O)(C(=O)O)OC1[C@H](O)[C@H](O)CO (stereo partly shown) [Neu5Acα2-6GalβpNP, reference compound] |  |  |  | 0 | 3.5 | 25.8 ± 2.1 | 0.2 | 0 | 0 | 1.4 | 0.8 | 0.4 | 0.8 | 14.6 ± 6.4 | 5.8 ± 6.8 |  |
